As usually defined, the KD is the constant that tells how readily two partners part at equilibrium. A higher KD goes with lower affinity.

Two compounds from article PMC7646944 (2020) can be followed below.

Each structure is given as a SMILES string.

Assay [1] has as its system SCA2.1–34 (DNA, aptamer) ACCTTAAGTGGGGTTCGGGTGGAGTTTATGGGGT
In words: isothermal titration calorimetry. Background: ITC needs no label: the signal is the heat of the interaction.

Assay [2] has as its system SCA2.1–40 (DNA, aptamer) CTTACGACCTTAAGTGGGGTTCGGGTGGAGTTTATGGGGT
In words: isothermal titration calorimetry.

Take `CCCC(C(=O)c1ccc2c(c1)OCO2)N1CCCC1` (stereo not drawn): the dissociation constant KD came to 96 ± 4.0 µM in assay [1] and 292 ± 14 µM in assay [2].

In assay [2], `CCC[C@H](C(=O)c1ccc2c(c1)OCO2)N1CCCC1` gave a dissociation constant KD of 0.65 ± 0.03 µM.
